Reference: US11965180B2, “Cancer stem cell population and method for production thereof” (CHUGAI SEIYAKU KABUSHIKI KAISHA, priority 2010, dated 2024)

How the values were obtained:
Type in all cases: cell-based, human
[1] = tested on: Lgr5-negative colon cancer stem cells; assay: Cell growth, Cell Counting Kit-8, floating cancer stem cells; conditions: 3-day culture; for growth and survival of Lgr5-negative colon cancer stem cells: 10 μg/ml
Experimental: (§1) To determine whether or not the Wnt signaling promotes the growth of colon cancer stem cells, the inventors examined the effects of FH535 (β-catenin/TCF inhibitor) and cardamonin (Wnt/β-catenin inhibitor that induces β-catenin degradation) on the growth of colon cancer stem cells. Cell growth was evaluated as described below. Floating and adherent cancer stem cells were seeded at about 100 and 1×10^4 cells per well, respectively, in 96-well plates. On days 0 and 3, living cells were counted using the Cell Counting Kit-8 assay (Doujindo) according to the manufacturer's protocol. The average absorbance on day 0 was expressed as 100%. For chemical sensitivity analysis, floating and adherent cancer stem cells were seeded at about 100 and 1×10^4 cells per well in 96-well plates, respectively. […] After 3-day culture in the presence of a drug, Cell Counting Kit-8 was added to the cells. The average absorbance of cells exposed to DMSO or the medium alone was expressed as 100%. All the experiments were conducted in triplicate.

[2] = tested on: Lgr5-positive colon cancer stem cells; assay: Cell growth, Cell Counting Kit-8, adherent cancer stem cells; conditions: 3-day culture; for growth of Lgr5-positive colon cancer stem cells: PLR123 and PLR59 cells
Experimental: as §1

[3] = tested on: Lgr5-positive colon cancer stem cells; assay: Lgr5 expression in adherent cancer stem cells after chemotherapeutic agent treatment (flow cytometry); conditions: after 3 days of exposing Lgr5-positive colon cancer stem cells to 10 μg/ml
Experimental: Gray indicates fluorescence intensity or ALDH activity after staining cells with the antibodies described. White indicates fluorescence intensity or ALDH activity of an ALDH inhibitor after staining cells with a control isotype antibody.
CSC was incubated with a labeled antibody and analyzed using EPICS ALTRA (Beckman Coulter) and FACSCalibur (Becton Dickinson). The antibodies used were PE-labeled mouse anti-human CD133 (Miltenyi Biotec), PE-labeled mouse anti-human CD44 (BD Pharmingen), FITC-labeled mouse anti-human CD326 (EpCAM) (Miltenyi Biotec), PE-labeled mouse anti-human CD166 (R & D Systems), PE-labeled mouse anti-human CD24 (BD Pharmingen), PE-labeled mouse anti-human CD26 (BD Pharmingen), and PE-labeled mouse anti-human CD29 (BD Pharmingen) antibodies.
Subsequently, the CSC was incubated with a mouse anti-human Lgr5 antibody (2T15E-2) and then a PR-labeled rat anti-mouse IgG (Invitrogen) antibody for Lgr5 staining. Aldehyde dehydrogenase activity was measured using the AldeFluor Kit (Stemcell Technologies). Mouse cells and human CSC were distinguished by staining with an anti-mouse MHC class I antibody (Abcam) and a PE- or APC-labeled goat anti-human IgG2a (BioLegend) antibody. Dead cells were removed with the 7-AAD Viability Dye (Beckman Coulter).

O=c1[nH]cc(F)c(=O)[nH]1 [5-FU]
growth and survival of Lgr5-negative colon cancer stem cells ([1]; PLR123 and PLR59 cells): had no effect on the growth and survival
growth of Lgr5-positive colon cancer stem cells ([2]; 10 μg/ml): significantly inhibited the growth
Lgr5 status of drug-resistant cells [3]: negative for Lgr5

Cc1cc([N+](=O)[O-])ccc1NS(=O)(=O)c1cc(Cl)ccc1Cl [FH535]
growth of Lgr5-negative colon cancer stem cells ([1]; 50 μM, PLR123 and PLR59 cells): had no effect on the growth
growth of Lgr5-positive colon cancer stem cells ([2]; 50 μM): significantly reduced the growth

COc1cc(O)cc(O)c1C(=O)/C=C/c1ccccc1 [cardamonin]
number of living cells ([1]; 50 μM, relative to DMSO alone, Lgr5-negative colon cancer stem cells): about 50%
number of living cells ([2]; 50 μM, relative to DMSO alone, Lgr5-positive colon cancer stem cells): 70%

CCc1c2c(nc3ccc(OC(=O)N4CCC(N5CCCCC5)CC4)cc13)-c1cc3c(c(=O)n1C2)COC(=O)[C@]3(O)CC [irinotecan]
growth and survival of Lgr5-negative colon cancer stem cells ([1]; PLR123 and PLR59 cells): had no effect on the growth and survival
growth of Lgr5-positive colon cancer stem cells ([2]; 10 μg/ml): significantly inhibited the growth
